Results taken from patent US20220146526A1, “METHOD FOR EVALUATING SAMPLE, ANALYSIS METHOD, METHOD FOR DETECTING DEGRADED SAMPLE, MARKER FOR DETECTING DEGRADED BLOOD PLASMA SAMPLE, AND MARKER FOR DETECTING DEGRADED SERUM SAMPLE” (SHIMADZU CORPORATION, priority 2019, published 2022).

Tests used:
Type in all cases: physicochemical, human
[1] = LC/MS of blood plasma sample: time from blood collection to centrifugation (Table D); conditions: for Rate of increase or decrease: detection intensity relative to 1 at 15 minutes; for Rate of increase or decrease / Increase or decrease: blood collection to centrifugation; for Increase or decrease: detection intensity; for Rate of increase or decrease (second value, decrease) / Rate of increase or decrease (first value, increase): different from individual to individual, relative to 1 at 15 minutes, collection to centrifugation; for Rate of increase or decrease (second value, decrease): individuals with decrease; for Rate of increase or decrease (first value, increase): individuals with increase
Method in brief: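 Detection intensities are expressed relative to samples centrifuged 15 min after collection (=1), measured by electrospray LC/MS in MRM mode (Discovery HS F5-3, 40 °C, formic acid water/acetonitrile gradient at 0.25 mL/min). EDTA blood from a healthy donor was held at 4 °C, centrifuged at 4 °C, 3000 rpm, 15 min, and plasma frozen.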

[2] = LC/MS of blood plasma sample: number of times of freezing and thawing (Table F); conditions: for Rate of increase or decrease: detection intensity relative to 1 at 2 times; for Increase or decrease: detection intensity
Method in brief: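 Values are detection intensities normalised to 1 for plasma thawed twice, compared against 4, 6 and 10 freeze-thaw cycles. Measured by electrospray LC/MS in MRM mode, formic acid water/acetonitrile mobile phase, column at 40° C. Plasma came from EDTA blood, cooled to 4° C and spun at 3000 rpm for 15 min.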

[3] = LC/MS of serum sample: time from blood collection to centrifugation (Table J); conditions: for Increase or decrease / Time when compound is affected: serum sample, LC/MS; for Increase or decrease: detection intensity vs 15 minutes from blood collection to centrifugation; for Time when compound is affected: time from blood collection to centrifugation, detection intensity changed by 30% or more vs 15 minutes
Method in brief: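 Detection intensities are expressed relative to 1 for samples centrifuged 15 min after blood collection; centrifugation was at room temperature, 3500 rpm, 5 min. Frozen serum was run by electrospray LC-MS in MRM mode, with 0.1% formic acid water/acetonitrile at 0.25 mL/min on a 40 °C F5 column.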

[4] = LC/MS of serum sample: number of times of freezing and thawing (Table M); design: key to Rate of increase or decrease: detection intensity relative to 1 at 2 freeze-thaw cycles; conditions: for Rate of increase or decrease: detection intensity relative to 1 at 2 times; for Number of times when compound is affected / Increase or decrease: serum sample, LC/MS; for Number of times when compound is affected: detection intensity changed by 30% or more vs 2 times of freezing and thawing; for Increase or decrease: detection intensity vs 2 times of freezing and thawing
Method in brief: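 Values are detection intensities relative to serum thawed twice, versus 4, 6 or 10 freeze-thaw cycles. Serum came from blood spun at room temperature, 3500 rpm for 5 minutes. Analysis: electrospray LC/MS in MRM mode, Discovery HS F5-3 column, 40° C, 0.1% formic acid in water and acetonitrile.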

[5] = LC/MS of serum sample: time from centrifugation to isolation (Table K); design: key to Rate of increase or decrease: detection intensity relative to the 30-minute value set as 1; conditions: for Increase or decrease / Time when compound is affected: serum sample, LC/MS; for Increase or decrease: detection intensity vs 30 minutes from centrifugation to isolation; for Time when compound is affected: time from centrifugation to isolation, detection intensity changed by 30% or more vs 30 minutes
Experimental: After standing, the blood sample was subjected to centrifugation under a condition of room temperature, 3500 rpm, and 5 minutes. […] After centrifugation, the blood-collecting vessel was left to stand at room temperature, and the serum was isolated during this time. Here, in order to investigate how the detection intensity of molecules contained in the sample was affected in cases where the time during which the blood-collecting vessel was left at room temperature was set to 1 hour and 6 hours as compared to that in a case where the time was set to 30 minutes, preparations were performed under the respective conditions of 30 minutes, 1 hour, and 6 hours. The obtained serum sample was frozen and stored. Here, in order to investigate how the detection intensity of molecules contained in the sample was affected in cases where freezing and thawing was performed 4 times, 6 times, and 10 times after freezing as compared to that in a case where freezing and thawing was performed 2 times after freezing, freezing and thawing was performed under the respective conditions of 2, 4, 6, and 10 times.
Frozen blood plasma samples and serum samples were subjected to GC/MS or LC/MS. In GC/MS, the blood plasma samples and serum samples were subjected to methoxymation and trimethylsilylation and then introduced to GC-MS.
Analysis column: Discovery HS F5-3 (inner diameter of 2.1 mm, length of 150 mm, film thickness of 3 μm) (Sigma-Aldrich)
Column temperature: 40° C.
(A) 0.1% formic acid (dissolved in water)
(B) 0.1% formic acid (dissolved in acetonitrile)
Flow velocity: 0.25 mL/min
Ionization method: electrospray
Temperature: • Desolvation Line (DL) temperature: 250° C. • Heat block temperature: 400° C. • Interface temperature: 300° C.
Gas flow rate: • Nebulizer gas flow rate: 3.0 L/min • Drying gas flow rate: 10.0 L/min • Heating gas flow rate: 10.0 L/min
Mode: multiple reaction monitoring (MRM)
The rate of increase or decrease in Table K is the value of detection intensity relative to 1 that is the detection intensity in a case where the time from centrifugation to isolation is set to 30 minutes.

[6] = GC/MS of blood plasma sample: time from blood collection to centrifugation (Table A)
Method in brief: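 Read-out is MRM detection intensity by electron-ionization GC/MS on a BPX5 column after methoxymation and trimethylsilylation, expressed relative to a 15-minute collection-to-centrifugation interval. Plasma was prepared from EDTA blood held at 4° C and spun at 4° C, 3000 rpm for 15 minutes, then frozen.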

[7] = GC/MS of blood plasma sample: number of times of freezing and thawing (Table C)
Method in brief: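 Values express detection intensity as a ratio to the 2-cycle freeze-thaw sample (=1), compared with 4, 6 and 10 cycles. Healthy-donor EDTA plasma, cooled at ≤1 min or ≥5 min, spun at 4 °C, 3000 rpm, 15 min. Derivatised by methoxymation/trimethylsilylation; GC-MS/MS in MRM mode with electron ionization.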

[8] = GC/MS of blood plasma sample: time from blood collection to cooling of blood (Table B); design: key to Rate of increase or decrease / Rate of increase or decrease (first value, increase): detection intensity relative to 1 at cooling time ≤1 min
Method in brief: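 Blood drawn at room temperature into EDTA tubes, mixed, then cooled at 4° C. within 1 minute or less versus 5 minutes or more before centrifugation (4° C., 3000 rpm, 15 minutes). Plasma was frozen, methoxymated and trimethylsilylated, and analysed by EI GC/MS in MRM mode. Values are detection intensity relative to the ≤1 minute condition.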

[9] = freezing and thawing 6 times vs 2 times
[10] = after 4 hours from blood collection to centrifugation, detection intensity relative to 1 at 15 minutes
[11] = after 1 hour from centrifugation to isolation, detection intensity relative to 1 at 30 minutes
[12] = 4 times of freezing and thawing
[13] = after 1 hour, relative to 1 at 30 minutes, different from individual to individual, second value (decrease)

SMILES	Rate of increase or decrease ([2]; freezing and thawing 6 times)	Increase or decrease [2, 9]	Rate of increase or decrease [3, 10]	Increase or decrease [3]	Time when compound is affected [3]	Number of times when compound is affected [4] [times]	Increase or decrease [4]	Rate of increase or decrease [5, 11]	Increase or decrease [5]	Time when compound is affected [5]	Increase or decrease ([1]; after 12 hours vs 15 minutes)	Rate of increase or decrease (second value, decrease) ([1]; after 12 hours)	Rate of increase or decrease (first value, increase) ([1]; after 12 hours)	Rate of increase or decrease [4, 12]	Rate of increase or decrease [5, 13]	further results
Nc1nc2c(ncn2[C@@H]2O[C@H](CO)[C@@H](O)[C@H]2O)c(=O)[nH]1 [Guanosine]	0.58	Decrease	0.08	Decrease	After 4 hours	6	Decrease	0.57	Decrease	After 1 hour hours	–	–	–	–	–	Rate of increase or decrease ([1]; after 6 hours): 1.57; Increase or decrease ([1]; after 6 hours vs 15 minutes): Increase; Rate of increase or decrease ([4]; 6 times of freezing and thawing): 0.62
C[S+]([O-])CC[C@H](N)C(=O)O (some centres unmarked) [Methionine sulfoxide]	–	–	–	Increase	After 6 hours	4	Increase	–	Increase	After 6 hours	Different from individual	0.54	1.36	1.55	–	Rate of increase or decrease ([3]; after 6 hours from blood collection to centrifugation, detection intensity relative to 1 at 15 minutes): 1.65; Rate of increase or decrease ([5]; after 6 hours from centrifugation to isolation, detection intensity relative to 1 at 30 minutes): 1.77
N[C@@H](CSSC[C@H](N)C(=O)O)C(=O)O [Cystine]	–	–	–	–	–	4	Increase	0.67	Decrease	After 1 hour hours	Decrease	–	–	1.56	–	Rate of increase or decrease ([1]; after 12 hours): 0.45; Rate of increase or decrease ([2]; freezing and thawing 10 times): 0.54; Increase or decrease ([2]; freezing and thawing 10 times vs 2 times): Decrease
O=c1ccn([C@@H]2O[C@H](CO)[C@@H](O)[C@H]2O)c(=O)[nH]1 [Uridine]	1.31	Increase	1.42	Increase	After 4 hours	4	Decrease	–	–	–	Different from individual	0.60	1.67	0.68	–	Increase or decrease ([6]; detection intensity, blood collection to centrifugation, after 4 hours vs 15 minutes): Different from individual; Rate of increase or decrease (second value, decrease) ([6]; different from individual to individual, individuals with decrease, relative to 1 at 15 minutes, collection to centrifugation, after 4 hours): 0.48; Rate of increase or decrease (first value, increase) ([6]; different from individual to individual, individuals with increase, relative to 1 at 15 minutes, collection to centrifugation, after 4 hours): 1.48; Rate of increase or decrease ([7]; detection intensity relative to 1 at 2 times, freezing and thawing 6 times): 0.69; Increase or decrease ([7]; detection intensity, freezing and thawing 6 times vs 2 times): Decrease; Increase or decrease ([8]; detection intensity, blood collection to cooling 5 minutes or more vs 1 minute or less): Different from individual; Rate of increase or decrease (second value, decrease) ([8]; different from individual to individual, individuals with decrease, relative to 1 at 1 minute or less, collection to cooling 5 minutes): 0.64; Rate of increase or decrease (first value, increase) ([8]; different from individual to individual, individuals with increase, relative to 1 at 1 minute or less, collection to cooling 5 minutes): 2.62
NCCC(=O)N[C@@H](Cc1cnc[nH]1)C(=O)O [Carnosine, carnosine]	–	–	2.83	Increase	After 4 hours	4	Decrease	–	Different from individual	After 1 hour hours	–	–	–	0.59	0.56	Rate of increase or decrease ([5]; after 1 hour, relative to 1 at 30 minutes, different from individual to individual, first value (increase)): 1.41
Nc1nc2c(ncn2[C@@H]2O[C@@H]3COP(=O)(O)O[C@H]3[C@H]2O)c(=O)[nH]1 [Guanosine 3′,5′-cyclic monophosphate, guanosine 3′,5′-cyclic monophosphate]	–	–	–	Different from individual	After 4 hours	4	Increase	–	Different from individual	After 1 hour hours	–	–	–	1.47	0.46	Rate of increase or decrease ([3]; after 4 hours, relative to 1 at 15 minutes, different from individual to individual, first value (increase)): 3.62; Rate of increase or decrease ([3]; after 4 hours, relative to 1 at 15 minutes, different from individual to individual, second value (decrease)): 0.58
